# Data as given in patent US7776828B2, “Radiation therapy methods” (University of Southern California, priority 1998, dated 2010).
# “Also recorded” adds a separate entry of the source. Non-standard residues stand in square brackets, D forms with d. No end group written: not given here. Phe(4-NH2) = Nc1ccc(C[C@H](N)C(=O)O)cc1
# Legend:
# [1] = tested on: cultured cells that are involved in wound repair; conditions: cited from earlier work
# Female C57B1/6 mice [2] = test: Post-irradiation mouse mortality/survival (600 cGy total body irradiation); format: in vivo
# Procedure: (§1) Female C57B1/6 mice (Jackson Labs, Bar Harbor, Me.) were irradiated with 600 cGy total body irradiation. Subcutaneous injection with either AII (10 μg/kg/day or 100 μg/kg/day) or saline (placebo) was initiated two days before (−day 2), on the day of (day 0) or 2 days after (+day 2) irradiation and continued until the animals succumbed to the irradiation or were necropsied. At various times after irradiation, the mice were anaesthetized with Metofane (Pittman-Moore Animal Health, NZ) and bled via the retro-orbital sinus. Red blood cells were lysed with 0.3% acetic acid and the number of white blood cells was determined by counting with a hemacytometer. […] Furthermore, AII administration at all time periods tested increased the number of circulating white blood cells (FIGS. 4-6).
# Female C57B1/6 mice [3] = test: Blood cell recovery after irradiation (white blood cells, megakaryocytes, monocytes, neutrophils, lymphocytes); format: in vivo
# Procedure: as §1
# [4] = tested on: chick chorioallantoic membrane; conditions: chick chorioallantoic membrane model; cited from earlier work
# rabbit corneal eye = rabbit corneal eye model; cited from earlier work
# C57B1/6 mice = test: Survival and white blood cell number of mice receiving bone marrow transplantation after lethal irradiation; format: in vivo
# Procedure: Donor C57B1/6 mice (female, 6-8 weeks old) were irradiated with 600 cGy total body irradiation. Starting on the day of irradiation, the mice received either saline (0.1 ml) or 20 μg/ml angiotensin II (0.1 ml, 100 μg/kg) subcutaneously for fourteen days. At the end of this period, the bone marrow was harvested from the femur by flushing and the number of viable nucleated cells determined by counting under a light microscope on a hemacytometer in the presence of trypan blue.
# These donor bone marrow cells were then injected intravenously into recipient mice (female C57B1/6, 6-8 weeks old) that had been lethally irradiated (900 cGy total body irradiation) at two concentrations: 1×10^6 or 1×10^5 cells per mouse. After injection, the recipient mice received either saline or 100 μg/kg AII subcutaneously until death or termination. The study design in its entirety is as follows:
# The survival of the mice and the number of circulating white blood cells were measured as a function of time post-bone marrow transplantation.
# AT2 receptor = conditions: cited from earlier work
# wound tissue = conditions: application to wound tissue; cited from earlier work
# [5] = Effectiveness testing of AII fragments (test not specified); conditions: test not described
# [6] = recipients 900 cGy, AII 100 μg/kg s.c. to donor and/or recipient
substance,measurement,setting,value
Asp-Arg-Val-Tyr-Ile-His-Pro-Phe (DRVYIHPF) [AII],mitogenesis and chemotaxis,[1],increases
same,release of growth factors and extracellular matrices,[1],increases
same,survival after irradiation,"Female C57B1/6 mice [2]; AII 10 or 100 μg/kg/day s.c. starting on the day of irradiation (day 0), FIG. 2",substantially increased survival
same,survival after irradiation,"Female C57B1/6 mice [2]; AII 10 or 100 μg/kg/day s.c. starting two days after irradiation (+day 2), FIG. 3",substantially increased survival
same,protection against mortality resulting from irradiation,"Female C57B1/6 mice [2]; AII 10 or 100 μg/kg/day s.c. starting two days prior to irradiation (-day 2), FIG. 1",did not protect against mortality
same,number of megakaryocytes,"Female C57B1/6 mice [3]; after 600 cGy irradiation, FIGS. 7-9",increased
same,number of monocytes,"Female C57B1/6 mice [3]; after 600 cGy irradiation, FIGS. 10-12",increased
same,number of neutrophils,"Female C57B1/6 mice [3]; after 600 cGy irradiation, FIGS. 13-15",increased
same,number of lymphocytes,"Female C57B1/6 mice [3]; after 600 cGy irradiation, FIGS. 16-18",increased
same,number of circulating white blood cells,"Female C57B1/6 mice [3]; all time periods tested (-day 2, day 0, +day 2), 600 cGy, FIGS. 4-6",increased
same,angiogenic activity,[4],angiogenic
same,angiogenic activity,rabbit corneal eye,angiogenic
same,number of circulating white blood cells post-bone marrow transplantation,C57B1/6 mice; [6],increased
same,survival post-bone marrow transplantation,C57B1/6 mice; [6],increased
same,benefit (survival and white blood cell number),C57B1/6 mice; treatment of both the donor bone marrow cells and the recipient mice with AII,greatest benefit
same,affinity for AT2 than AT1,AT2 receptor; selectivity AT2 over AT1,100 times
same,rate of wound healing,wound tissue,significantly increases
"Asp-Arg-Val-Tyr-Ile-Xaa-Pro-Phe (DRVYI[Phe(4-NH2)]PF) [p-aminophenylalanine6-AII, reference compound]",binding characteristics,AT2 receptor; compared with AT2 antagonists in the experimental models tested,comparable to AT2 antagonists
His-Pro-Phe (HPF) [AII(6-8)],effectiveness,[5],not to be effective
Tyr-Ile-His-Pro-Phe (YIHPF) [AII(4-8)],effectiveness,[5],not to be effective; also recorded: ineffective
